Experimental data as given in US9642859B2, “Use of capsazepine and analogs thereof to treat cancer” (THE BOARD OF REGENTS OF THE UNIVERSITY OF TEXAS SYSTEM, priority 2012, dated 2017).
“Also recorded” adds a separate entry of the source.

Key:
[1] = system: immortalized human bronchiolar epithelial cell line transformed with a TRPV1 insert; details: TRPV1-overexpressing cultured cells; cited from earlier work
[2] = system: OSCC cell lines (HSC3, SCC4, and SCC25)
Protocol: Cell viability assays reported as % of vehicle control (n=3). […] VEH=delivery vehicle control without CAP or CPZ. *p<0.05, ***p<0.001.
FIG. 1H-1: Cell viability assays of OSCC cell lines treated with 30 μM CPZ alone or in combination with 10 mM N-Acetyl-L-Cysteine (NAC) for 24 h (n=4); ***p<0.001.
Human OSCC Cell Lines. The human OSCC cell lines MDA231, PS3, SCC4 and SCC25 were obtained from ATCC (American Type Culture Collection, Rockville, Md.). The HSC3 cell line was obtained from the Japanese Cell Resource Bank (Osaka, Japan). […] Cells were maintained in DMEM (GIBCO, Carlsbad, Calif.) supplemented with 10% FBS at 37° C. in 5% CO2. Both cell lines were derived from primary OSCC tumors from the tongues of male patients in their fifth generation of life. Data regarding pertinent medical history, treatment, outcome of care and recurrence were not available.
Statistical Analysis. Statistical analyses were performed using GraphPad Prism4 (San Diego, Calif.). Experiments were performed in triplicate and results are represented as means+SD except when indicated. […] Cytotoxicity assays of cell viability were analyzed by one-way ANOVA and Bonferroni's post-hoc test (n=3).

[3] = system: OSCC cell lines (HSC3, SCC4, and SCC25); experiment: Calcium imaging of OSCC cell lines; format: cell-based, human; details: capsazepine 30 μM (cytotoxic dose)
Protocol: FIGS. 1J-1 to 1J-2. FIGS. 1J-1(a) to (c): […] FIGS. 1J-2(a) to (c): […] Arrow indicates time point when treatment was added. […] This was due to the toxic effects of this high capsaicin concentration which permeablized the cell membrane allowing calcium to flow freely […] the cell. This was not reversed by capsazepine. […] These finding confirm that activation of TRPV1 is not the mechanism by which cell death is induced using capsazepine.

HSC3 xenografts = experiment: OSCC mouse xenograft model, HSC3; format: in vivo, athymic nude (nu/nu) mice; details: 40 μg CPZ intra-tumoral every other day
Text: Animals. Six week-old female athymic nude (nu/nu) mice were purchased from HARLAN Laboratories (Indianapolis, Ind.) and used in a laminar air-flow cabinet under pathogen-free conditions. They were provided with a 12-h light/dark schedule at controlled temperature and humidity with food and water ad libitum. Mice were allowed to acclimate for at least one week prior to the start of the experiments. All procedures were approved by the UTHSCSA (University of Texas Health Science Center—San Antonio) Institutional Animal Care and Use Committee.
OSCC Mouse Xenograft Model. Mice were injected subcutaneously in the right flank with 2×10^6 HSC3, SCC4, or SCC25 cells in 0.1 ml of sterile phosphate buffered saline (each of these cell lines is published in scientific literature). Four weeks post-inoculation, tumors had grown to an average volume of 110 mm^3. Mice were then divided into two experimental groups of five animals each, which received the following treatments as intra-tumoral injections: group A, vehicle control (7% DMSO in sterile saline); group B, CPZ treatment (40 μg). The injections were repeated every other day and for a total of at least 14 days.
Treatments. […] Mice were monitored daily for tumor growth, cachexia, and weight loss. Tumor volumes and body weight were recorded every other day. Tumor volumes were calculated by the formula: (4π/3)×(w/2)2×(l/2), where w=width and l=length. […]

[4] = rat model, high intravenous administration dose; cited from earlier work
OKF6 cells = experiment: Cell viability assay of immortalized non-malignant oral keratinocytes; format: cell-based; details: 24 hours
Text: FIG. 1D-2. […] Treatment with high concentrations of CAP induces death of normal, non-malignant OKF6 cells. The effect of which was reversed by the pre-treatment with CPZ.

SCC25 [5] = experiment: Additional cell proliferation assay, SCC25; format: cell-based, human; details: SCC25, 24 hour treatment
Text: (§1) Observed reductions in cell proliferation in these additional in vitro studies are as follows: SCC4, 40%; HSC3, 50%; SCC25, 80%; Cal27, 15%; MDA231, 56%; and LnCap, 37%.

HSC3 = experiment: Cell cycle analysis by DNA profile FACS, HSC3; format: cell-based, human; details: 24 hours
Protocol: (§2) In particular, Table 1 provides additional cell cycle distribution data of OSCC cells (%) treated with 0 μM, 30 μM, 60 μM, or 90 μM CPZ for 24 hours. Data for OSCC cell lines HSC3, SCC4, and SCC25 are also provided in diagrams of FIGS. 1G-1, 1G-2, and 1G-3, respectively.

[6] = system: nicotinic acetylcholine receptors; details: cited from earlier work
[7] = system: CFA-induced mechanical hyperalgesia; details: guinea pigs; cited from earlier work
[8] = system: MDA231 breast cancer cells; experiment: Cell viability assay of MDA231 cells with and without NAC; format: cell-based, human; details: 24 h
[9] = system: OSCC cell lines (HSC3, SCC4, and SCC25); experiment: Western blot analysis of cleaved PARP; format: cell-based, human; details: increasing doses of CPZ, 24 h
Protocol: FIG. 1F. […] The Control (Ctrl) is […].
as §2

HSC3 cells = experiment: Cell viability assay of HSC3 cells, dose response curve; format: cell-based; details: Homo sapiens, HSC-3, HSC3 cells, FIG. 1K
Text: FIG. 1K. Cell viability assay of HSC3 cells treated with increasing concentrations of curcumin; […]

SCC25 [10] = experiment: Cell cycle analysis by DNA profile FACS, SCC25; format: cell-based, human; details: 24 hours
Protocol: as §2

[11] = Tolerability observations in tumor bearing mice treated intratumorally; format: in vivo
Protocol: Treatments. CPZ (5 mg) was diluted in 250 μl of 100% DMSO to yield a final concentration of 20 μg/μl of stock solution. Stock solution (100 m) was subsequently diluted in 7% DMSO in sterile saline generating a final concentration of 1 μg/μl. A total of 40 μg in 40 μl was injected intra-tumorally. Control xenografts were injected intra-tumorally with 40 μl of vehicle control (7% DMSO). Mice were monitored daily for tumor growth, cachexia, and weight loss. Tumor volumes and body weight were recorded every other day. Tumor volumes were calculated by the formula: (4π/3)×(w/2)2×(l/2), where w=width and l=length. Measurements were made using a digital caliper. At the conclusion of the experiments, mice were anaesthetized with isoflurane and cervical dislocation, blood was collected, and the serum was separated and stored at −80° C. until assayed. Biochemical analysis of serum was performed by the Mouse Metabolic Phenotyping Center (Yale School of Medicine, New Haven, Conn.). Tumors were dissected and placed in 10% neutral buffered formalin (SIGMA, St. Louis, Mo.) and processed for histological analysis.

[12] = system: PC3 prostate cancer cells; experiment: Cell viability assay of PC3 cells with and without NAC; format: cell-based, human; details: PC3 prostate cancer cells, 24 h
[13] = system: prostate cancer cell line LnCap; experiment: Additional cell proliferation assay, LnCap; format: cell-based; details: 24 hour treatment
Text: as §1

Oc1cc2c(cc1O)CN(C(=S)NCCc1ccc(Cl)cc1)CCC2 [CPZ, 2-[2-(4-chlorphenyl)ethylamino-thiocarbonyl]-7,8-dihydroxy-2,3,4,5-tetrahydro-1H-2-benzazepine]
reversal of CAP-induced apoptosis by CPZ [1]: failed to reverse these effects
cytotoxicity [2]: significant dose dependent cytotoxicity
intra-cellular calcium levels [3]: had no effect on intra-cellular calcium levels
healing of xenografts (HSC3 xenografts): complete healing in some treated HSC3 xenografts
tumor volume (HSC3 xenografts; two weeks, p<0.05): significant reduction in tumor volume
hyperthermia [4]: does not cause hyperthermia
effect of CPZ on CAP-induced reduction in cell viability (OKF6 cells; CAP 150 μM / CPZ 30 μM): reversed the effects
toxicity on normal, non-malignant cells (OKF6 cells; CPZ 30 μM): non-toxic effect; also recorded: no toxicity was observed
reduction in cell proliferation (SCC25 [5]): 80%
G0/G1 (HSC3; HSC3, CPZ 30 μM): 47.76%
G2/M (HSC3; HSC3, CPZ 30 μM): 20.3%
S (HSC3; HSC3, CPZ 30 μM): 13.47%
SubG1 (HSC3; HSC3, CPZ 30 μM): 18.47%
G0/G1 (HSC3; HSC3, CPZ 60 μM): 24.09%
G2/M (HSC3; HSC3, CPZ 60 μM): 7.37%
S (HSC3; HSC3, CPZ 60 μM): 11.23%
SubG1 (HSC3; HSC3, CPZ 60 μM): 57.31%
G0/G1 (HSC3; HSC3, CPZ 90 μM): 23.53%
G2/M (HSC3; HSC3, CPZ 90 μM): 5.08%
S (HSC3; HSC3, CPZ 90 μM): 10.27%
SubG1 (HSC3; HSC3, CPZ 90 μM): 61.12%
effect on nicotinic acetylcholine receptors [6]: Inhibitis
CFA-induced mechanical hyperalgesia [7]: Significantly reversed
cytotoxicity [8]: significant dose dependent cytotoxicity
cleaved PARP (c-PARP, marker of apoptosis) [9]: induction of cleaved PARP
IC50 (HSC3 cells): 30 µM
G0/G1 (SCC25 [10]; SCC25, CPZ 30 μM): 42.92%
G2/M (SCC25 [10]; SCC25, CPZ 30 μM): 3.3%
S (SCC25 [10]; SCC25, CPZ 30 μM): 9.01%
SubG1 (SCC25 [10]; SCC25, CPZ 30 μM): 44.77%
G0/G1 (SCC25 [10]; SCC25, CPZ 60 μM): 28.63%
G2/M (SCC25 [10]; SCC25, CPZ 60 μM): 6.11%
S (SCC25 [10]; SCC25, CPZ 60 μM): 14.78%
SubG1 (SCC25 [10]; SCC25, CPZ 60 μM): 50.48%
G0/G1 (SCC25 [10]; SCC25, CPZ 90 μM): 17.23%
G2/M (SCC25 [10]; SCC25, CPZ 90 μM): 2.5%
S (SCC25 [10]; SCC25, CPZ 90 μM): 10.36%
SubG1 (SCC25 [10]; SCC25, CPZ 90 μM): 69.91%
body weight ([11]; approximately two-week intra-tumoral CPZ treatment): did not lose weight
adjacent healthy tissues ([11]; intratumoral injection with CPZ): No inflammation, ulceration, necrosis or pain were evident
cytotoxicity [12]: significant dose dependent cytotoxicity
reduction in cell proliferation [13]: 37%
